Patent US6849712B1, “Peptides with β1 integrin subunit dependent cell adhesion modulating activity” (Regents of the University of Minnesota, priority 1998, dated 2005)
Where no end group is shown, it is not given here.

Assays:
α4β1 integrin = α4β1 integrin (Homo sapiens, UniProt P05556+P13612); assay: α4β1 integrin-dependent Mn+2 stimulated M16B adhesion to rCS1; format: cell-based; set-up: endogenous in cells; details: soluble peptide
α5β1 integrin = target: T1, α5β1 integrin (Homo sapiens, UniProt P05556+P08648); assay: Inhibition of α5β1 integrin dependent Mn+2 stimulated adhesion of K562 cells to fibronectin (FN); format: cell-based
T1 construct: erythroleukemic cell line K562, which expresses α5β1 but not α4β1 integrin; endogenous in cells; host or cells: K562 cells
Experimental: The cell adhesion assay was carried out as described above. […] Each data point represents the mean of triplicate determinations and the error bars represent the standard deviation of the mean. The solid black line represents adhesion to the negative control substrate, BSA.

α2β1 and α3β1 integrin = assay: Inhibition of α2β1, α3β1 integrin dependent human melanoma M14#5 cell adhesion to laminin and type IV collagen; format: cell-based; details: 0.5 mg/ml peptide (0.42 mM), 30 minutes
Experimental: An experiment was conducted to examine the ability of FN-C/H V+Y (SEQ ID NO:1) to inhibit α2β1, α3β1 integrin dependent cell adhesion using an assay based on human melanoma cells (M14#5).
Laminin, type IV collagen and BSA were coated overnight in a 96 well microtiter plate at 10 μg/ml and blocked with 0.3% BSA. M14#5 cells were preincubated with 0.5 mg/ml of peptide (equivalent to 0.42 mM FN-C/H V and scrambled FN-C/H V and 0.17 mM CSI) and allowed to adhere to substrates for 30 minutes.

α1β2 (LFA-1) integrin = target: T2, α1β2 (LFA-1) integrin (Homo sapiens, UniProt P05107+P20701); assay: α1β2 (LFA-1) integrin dependent M16B adhesion to rICAM; format: cell-based
T2 construct: the B-cell line M16B (which both express functional α4β1 and α1β2 integrin); endogenous in cells; host or cells: M16B B-cell line
Experimental: To determine whether inhibition of adhesion by soluble FN-C/H V is specific for b1 integrins, the ability of this peptide to inhibit β2 integrin-dependent adhesion was also evaluated.

[1] = test system: peripheral blood mononuclear cells and spleen cells; details: reported, Wahl et al.; cited from earlier work
[2] = in vivo rat model, reported; cited from earlier work
VCAM = details: reported; cited from earlier work

Chain of α4β1 integrin (P13612 34-1032): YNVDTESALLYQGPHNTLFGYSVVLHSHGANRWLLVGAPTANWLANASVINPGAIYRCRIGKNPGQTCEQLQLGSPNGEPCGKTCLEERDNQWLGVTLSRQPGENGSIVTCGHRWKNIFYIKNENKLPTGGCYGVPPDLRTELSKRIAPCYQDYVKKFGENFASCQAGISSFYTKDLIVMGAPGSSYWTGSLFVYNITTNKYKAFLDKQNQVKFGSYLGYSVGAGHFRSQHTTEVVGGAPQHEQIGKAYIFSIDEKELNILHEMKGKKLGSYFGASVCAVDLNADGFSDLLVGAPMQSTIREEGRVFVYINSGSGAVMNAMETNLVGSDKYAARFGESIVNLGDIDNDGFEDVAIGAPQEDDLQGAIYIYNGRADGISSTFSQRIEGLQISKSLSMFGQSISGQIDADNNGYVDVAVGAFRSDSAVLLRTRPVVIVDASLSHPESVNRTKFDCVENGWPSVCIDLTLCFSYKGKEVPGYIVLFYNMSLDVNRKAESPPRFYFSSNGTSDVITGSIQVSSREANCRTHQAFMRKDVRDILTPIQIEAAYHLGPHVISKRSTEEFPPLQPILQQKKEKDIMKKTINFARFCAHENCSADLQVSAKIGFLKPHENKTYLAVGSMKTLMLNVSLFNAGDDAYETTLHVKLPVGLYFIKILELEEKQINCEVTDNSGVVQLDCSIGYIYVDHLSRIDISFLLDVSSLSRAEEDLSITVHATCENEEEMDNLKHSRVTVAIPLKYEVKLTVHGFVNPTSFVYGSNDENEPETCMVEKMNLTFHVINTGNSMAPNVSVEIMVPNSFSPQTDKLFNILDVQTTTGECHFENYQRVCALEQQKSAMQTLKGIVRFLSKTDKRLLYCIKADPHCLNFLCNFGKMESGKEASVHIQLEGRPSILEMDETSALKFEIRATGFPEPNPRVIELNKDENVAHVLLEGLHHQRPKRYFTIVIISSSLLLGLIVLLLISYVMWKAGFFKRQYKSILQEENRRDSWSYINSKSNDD
Chain of α4β1 integrin (P05556 21-798): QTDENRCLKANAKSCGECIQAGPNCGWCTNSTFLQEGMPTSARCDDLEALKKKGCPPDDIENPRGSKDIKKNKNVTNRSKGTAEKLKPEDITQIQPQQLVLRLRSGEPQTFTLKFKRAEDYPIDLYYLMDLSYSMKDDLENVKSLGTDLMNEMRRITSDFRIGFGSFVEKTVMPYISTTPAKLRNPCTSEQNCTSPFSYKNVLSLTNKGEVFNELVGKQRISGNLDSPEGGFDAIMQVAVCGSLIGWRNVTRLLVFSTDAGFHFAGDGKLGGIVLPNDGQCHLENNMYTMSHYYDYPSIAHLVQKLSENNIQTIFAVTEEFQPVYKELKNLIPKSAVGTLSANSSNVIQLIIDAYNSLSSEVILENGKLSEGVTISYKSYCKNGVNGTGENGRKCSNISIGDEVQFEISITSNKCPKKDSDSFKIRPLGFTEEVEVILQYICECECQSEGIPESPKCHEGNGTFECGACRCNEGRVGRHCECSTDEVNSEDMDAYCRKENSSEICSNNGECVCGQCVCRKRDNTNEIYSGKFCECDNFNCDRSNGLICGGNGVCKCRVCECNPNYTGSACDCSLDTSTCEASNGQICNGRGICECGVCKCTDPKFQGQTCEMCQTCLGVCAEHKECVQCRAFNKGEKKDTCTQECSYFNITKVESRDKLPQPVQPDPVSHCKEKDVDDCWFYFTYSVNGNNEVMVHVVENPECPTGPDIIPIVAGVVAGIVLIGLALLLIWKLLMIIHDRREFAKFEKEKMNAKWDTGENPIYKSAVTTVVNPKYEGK
T1 sequence (P08648 42-894 limits assumed): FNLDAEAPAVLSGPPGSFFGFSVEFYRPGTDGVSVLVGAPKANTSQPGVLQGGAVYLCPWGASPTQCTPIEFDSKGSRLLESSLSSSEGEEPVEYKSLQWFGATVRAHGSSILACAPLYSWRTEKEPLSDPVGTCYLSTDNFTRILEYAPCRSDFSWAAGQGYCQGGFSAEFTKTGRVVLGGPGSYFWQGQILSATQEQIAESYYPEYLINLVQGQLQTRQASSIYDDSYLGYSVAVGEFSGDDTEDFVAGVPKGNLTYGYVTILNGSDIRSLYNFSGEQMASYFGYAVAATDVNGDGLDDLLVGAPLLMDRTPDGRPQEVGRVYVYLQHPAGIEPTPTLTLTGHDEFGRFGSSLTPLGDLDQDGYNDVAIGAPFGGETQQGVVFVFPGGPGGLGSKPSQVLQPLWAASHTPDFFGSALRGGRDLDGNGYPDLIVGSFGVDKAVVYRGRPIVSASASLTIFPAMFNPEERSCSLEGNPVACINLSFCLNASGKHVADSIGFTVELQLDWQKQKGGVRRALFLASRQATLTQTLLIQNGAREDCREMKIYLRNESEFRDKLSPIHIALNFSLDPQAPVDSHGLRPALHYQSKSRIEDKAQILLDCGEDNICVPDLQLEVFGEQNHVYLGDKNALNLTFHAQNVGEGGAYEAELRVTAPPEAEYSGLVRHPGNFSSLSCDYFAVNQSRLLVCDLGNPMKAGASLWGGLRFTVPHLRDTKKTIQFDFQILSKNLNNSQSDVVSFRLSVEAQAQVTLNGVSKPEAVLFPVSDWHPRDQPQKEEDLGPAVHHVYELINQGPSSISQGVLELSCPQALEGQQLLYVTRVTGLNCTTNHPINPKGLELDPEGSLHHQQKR
T1 sequence (P08648 895-1049 limits assumed): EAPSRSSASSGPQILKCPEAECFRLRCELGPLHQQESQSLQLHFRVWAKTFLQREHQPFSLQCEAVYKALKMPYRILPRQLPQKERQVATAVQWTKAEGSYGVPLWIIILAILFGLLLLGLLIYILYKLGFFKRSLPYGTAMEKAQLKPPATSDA
T1 sequence (P05556 21-798): as the sequence (P05556 21-798) above
T2 sequence (P20701 26-1170): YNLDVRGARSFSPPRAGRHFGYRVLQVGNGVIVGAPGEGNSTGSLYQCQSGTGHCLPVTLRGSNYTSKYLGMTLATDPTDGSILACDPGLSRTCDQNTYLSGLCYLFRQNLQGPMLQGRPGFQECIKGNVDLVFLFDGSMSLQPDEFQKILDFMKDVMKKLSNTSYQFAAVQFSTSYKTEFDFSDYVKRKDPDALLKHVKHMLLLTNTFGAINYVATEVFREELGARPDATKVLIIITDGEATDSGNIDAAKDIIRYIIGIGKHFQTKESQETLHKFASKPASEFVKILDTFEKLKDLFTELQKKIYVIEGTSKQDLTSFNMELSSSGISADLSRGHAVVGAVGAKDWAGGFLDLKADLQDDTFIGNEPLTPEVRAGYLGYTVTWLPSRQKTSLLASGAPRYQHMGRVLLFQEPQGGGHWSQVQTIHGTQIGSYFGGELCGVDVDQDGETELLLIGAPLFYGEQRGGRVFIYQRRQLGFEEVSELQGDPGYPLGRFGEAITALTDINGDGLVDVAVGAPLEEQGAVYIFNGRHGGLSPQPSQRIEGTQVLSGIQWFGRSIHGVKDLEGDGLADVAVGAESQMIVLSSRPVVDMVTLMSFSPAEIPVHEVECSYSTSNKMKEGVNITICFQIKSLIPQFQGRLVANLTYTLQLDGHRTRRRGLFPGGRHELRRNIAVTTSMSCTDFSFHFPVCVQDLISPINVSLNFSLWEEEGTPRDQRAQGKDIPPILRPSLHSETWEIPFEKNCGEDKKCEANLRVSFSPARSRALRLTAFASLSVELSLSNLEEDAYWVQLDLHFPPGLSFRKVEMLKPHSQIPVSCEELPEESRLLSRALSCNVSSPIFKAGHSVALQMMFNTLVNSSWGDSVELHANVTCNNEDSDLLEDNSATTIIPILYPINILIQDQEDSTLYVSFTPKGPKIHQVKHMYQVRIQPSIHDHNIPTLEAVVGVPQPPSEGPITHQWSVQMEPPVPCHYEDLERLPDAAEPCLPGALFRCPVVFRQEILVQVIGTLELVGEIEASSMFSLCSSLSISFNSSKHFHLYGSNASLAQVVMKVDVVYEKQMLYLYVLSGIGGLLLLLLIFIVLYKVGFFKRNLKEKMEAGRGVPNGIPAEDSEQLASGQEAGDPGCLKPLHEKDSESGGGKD
T2 sequence (P05107 23-769): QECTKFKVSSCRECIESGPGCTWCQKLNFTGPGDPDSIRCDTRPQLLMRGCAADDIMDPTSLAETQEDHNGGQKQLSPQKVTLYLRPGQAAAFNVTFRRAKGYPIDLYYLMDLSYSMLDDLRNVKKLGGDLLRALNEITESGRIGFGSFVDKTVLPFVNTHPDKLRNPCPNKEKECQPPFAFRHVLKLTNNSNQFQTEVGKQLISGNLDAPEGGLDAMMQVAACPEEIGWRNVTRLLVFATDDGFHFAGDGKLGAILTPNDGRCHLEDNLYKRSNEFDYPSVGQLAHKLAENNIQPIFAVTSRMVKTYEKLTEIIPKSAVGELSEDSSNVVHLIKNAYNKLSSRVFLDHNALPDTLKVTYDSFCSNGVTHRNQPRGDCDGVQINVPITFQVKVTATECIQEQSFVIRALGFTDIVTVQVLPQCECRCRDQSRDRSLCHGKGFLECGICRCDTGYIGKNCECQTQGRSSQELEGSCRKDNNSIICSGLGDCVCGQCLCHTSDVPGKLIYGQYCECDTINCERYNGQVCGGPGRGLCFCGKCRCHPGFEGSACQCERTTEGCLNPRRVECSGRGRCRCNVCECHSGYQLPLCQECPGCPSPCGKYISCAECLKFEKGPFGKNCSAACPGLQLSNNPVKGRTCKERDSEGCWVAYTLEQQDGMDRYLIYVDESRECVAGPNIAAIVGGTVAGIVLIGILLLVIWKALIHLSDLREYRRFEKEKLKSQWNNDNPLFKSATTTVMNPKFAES

Substance | inhibition of M16B adhesion to rCS1 (α4β1 integrin) | inhibition of K562 adhesion to FN at the maximal concentration tested (α5β1 integrin; 0.84 mM peptide, K562 cells stimulated with 1 mM MnCl2) | IC50 (α5β1 integrin; K562 cells stimulated with 1 mM MnCl2, adhesion to FN, read-out: half-maximal inhibitory concentration) [µM] | inhibition of M14#5 cell adhesion to laminin (α2β1 and α3β1 integrin; laminin coated substrate) | inhibition of M14#5 cell adhesion to type IV collagen (α2β1 and α3β1 integrin; type IV collagen coated substrate) | inhibition of M16B adhesion to rICAM (α1β2 (LFA-1) integrin) | inhibition of leukocyte adhesion to fibronectin in vitro [1] | anti-inflammatory properties [2] | inhibition of adhesion to VCAM (VCAM)
DELPQLVTLPHPNLHGPEILDVPST (listed as Homo sapiens) [CS1, fibronectin residues 1961-1985] | completely inhibited |  |  |  |  |  |  |  | 
WQPPRARIY-OH [SEQ ID NO:1] | completely inhibited | completely inhibited | 200 | inhibited | inhibited | not inhibited | inhibit leukocyte adhesion to fibronectin in vitro | exhibit anti-inflammatory properties | inhibit adhesion to VCAM
YEKPGSPPREV-VPRPRPGVY (YEKPGSPPREVVPRPRPGVY; listed as Homo sapiens) [FN-C/H I+Y] |  |  |  |  |  |  | inhibit leukocyte adhesion to fibronectin in vitro | exhibit anti-inflammatory properties | 
